Measurements published in paper PMC7465821, “Isolation of Three Lycorine Type Alkaloids from Rhodolirium speciosum (Herb.) Ravenna Using pH-Zone-Refinement Centrifugal Partition Chromatography and Their Acetylcholinesterase Inhibitory Activities” (Metabolites, 2020).

Molecular target: acetylcholinesterase (AChE) (Electrophorus electricus, UniProt O42275)
Assay: Ellman spectrophotometric microplate assay, […] nm
Assay type: biochemical

acetylcholinesterase (AChE), sequence (O42275 24-633): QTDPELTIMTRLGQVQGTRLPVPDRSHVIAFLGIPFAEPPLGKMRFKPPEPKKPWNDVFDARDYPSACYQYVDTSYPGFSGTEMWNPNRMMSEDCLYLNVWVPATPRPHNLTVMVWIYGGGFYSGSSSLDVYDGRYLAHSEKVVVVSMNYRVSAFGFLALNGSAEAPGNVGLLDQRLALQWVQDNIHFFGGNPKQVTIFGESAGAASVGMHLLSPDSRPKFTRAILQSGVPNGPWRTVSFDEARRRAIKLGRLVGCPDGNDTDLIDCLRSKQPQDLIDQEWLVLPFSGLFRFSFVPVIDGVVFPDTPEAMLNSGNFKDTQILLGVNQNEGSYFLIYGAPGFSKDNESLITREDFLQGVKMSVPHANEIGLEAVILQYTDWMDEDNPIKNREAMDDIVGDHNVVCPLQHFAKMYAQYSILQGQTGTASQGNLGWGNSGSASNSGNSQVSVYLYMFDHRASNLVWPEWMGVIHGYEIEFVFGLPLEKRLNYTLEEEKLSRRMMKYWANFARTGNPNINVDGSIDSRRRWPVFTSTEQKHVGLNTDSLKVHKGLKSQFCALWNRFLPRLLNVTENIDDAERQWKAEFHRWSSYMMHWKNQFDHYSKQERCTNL

Row | Structure (SMILES) | IC50 [µM]
1 | CC(=O)OC1[C@@H](OC(C)=O)C=C2CC[N+]3=Cc4cc5c(cc4[C@H]1[C@@H]23)OCO5 (stereo partly drawn) [compound 3, 1,2-O-diacetyl-5,6-dehydrolycorine] | 46.3
2 | CC(=O)O[C@H]1[C@H]2c3cc4c(cc3CN3CCC(=C[C@@H]1O)[C@H]23)OCO4 [compound 2, 1-O-acetyl-lycorine] | 1430
3 | CC(=O)O[C@H]1[C@H]2c3cc4c(cc3C=[N+]3CCC(=C[C@@H]1O)[C@H]23)OCO4 [compound 1, 1-O-acetyl-5,6-dehydrolycorine] | 620
